As a reminder, the IC50 is the concentration needed to halve the response being measured.

The target in one experiment is T1, Monoglyceride lipase (Homo sapiens, UniProt Q99685).
T1 sequence (Q99685 whole entry): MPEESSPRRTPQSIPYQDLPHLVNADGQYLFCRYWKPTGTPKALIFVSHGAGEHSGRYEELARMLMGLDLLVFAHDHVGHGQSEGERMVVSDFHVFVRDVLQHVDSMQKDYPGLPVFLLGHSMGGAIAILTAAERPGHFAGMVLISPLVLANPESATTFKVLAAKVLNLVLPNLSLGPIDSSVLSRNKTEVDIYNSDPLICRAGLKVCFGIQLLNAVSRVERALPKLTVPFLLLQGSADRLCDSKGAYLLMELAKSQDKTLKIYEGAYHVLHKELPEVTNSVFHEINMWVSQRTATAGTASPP
Kind of experiment: Inhibition of human recombinant MAGL pre-incubated for 5 mins before MAGL substrate addition and further incubated for 10 mins.

Experiment [1] concerns the target T2, Fatty-acid amide hydrolase 1 (Rattus norvegicus, UniProt P97612).
T2 sequence (P97612 whole entry): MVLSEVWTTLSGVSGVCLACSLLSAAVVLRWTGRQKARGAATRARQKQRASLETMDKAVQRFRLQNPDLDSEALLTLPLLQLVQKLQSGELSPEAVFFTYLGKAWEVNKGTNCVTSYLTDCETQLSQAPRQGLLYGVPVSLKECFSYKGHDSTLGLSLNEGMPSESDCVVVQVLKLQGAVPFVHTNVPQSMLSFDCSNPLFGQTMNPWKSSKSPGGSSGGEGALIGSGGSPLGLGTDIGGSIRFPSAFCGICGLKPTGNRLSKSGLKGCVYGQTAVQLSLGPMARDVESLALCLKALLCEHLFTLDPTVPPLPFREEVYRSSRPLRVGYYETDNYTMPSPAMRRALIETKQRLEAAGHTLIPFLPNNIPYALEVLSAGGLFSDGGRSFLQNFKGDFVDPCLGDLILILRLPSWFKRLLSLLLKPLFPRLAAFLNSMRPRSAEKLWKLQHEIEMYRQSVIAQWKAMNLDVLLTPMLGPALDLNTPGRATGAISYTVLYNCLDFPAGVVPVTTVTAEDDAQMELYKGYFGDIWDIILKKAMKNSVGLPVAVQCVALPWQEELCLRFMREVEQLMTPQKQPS
The experiment can be described thus: Inhibition of rat FAAH.

Experiment [2] deals with Mus musculus. The experiment can be described thus: Antidepressant activity in ICR mouse model of reserpine-induced depression assessed as immobility time at 5 mg/kg, ig by forced swim test (reference value: 136.84 +/- 46.69 secs). The format is functional.
Experiment [3] relates to Mus musculus. Kind of experiment: Antidepressant activity in ICR mouse model of reserpine-induced depression assessed as immobility time at 5 mg/kg, ig by tail suspension test (reference value: 132.38 +/- 44.51 secs). The format is functional.

With `O=C(Nc1ccccc1)C1CCN(C(c2ccc(F)cc2)c2ccc(F)cc2)CC1`, at Monoglyceride lipase, the IC50 was more than 100 µM. On the same count and under the same terms, the value for `Cc1cc(C)cc(NC(=O)C2CCN(C(c3ccccc3)c3ccccc3)CC2)c1` was more than 100 µM. Turning to `O=C(Nc1ccccc1)C1CCN(C(c2ccccc2)c2ccccc2)CC1`, the IC50 at Monoglyceride lipase is more than 100 µM.

Consider `COc1cccc(C(=O)N2CCC(C(=O)Nc3cccc(O)c3)CC2)c1`, for which the IC50 at Monoglyceride lipase is more than 100 µM. As to `CC(C)(C)c1ccc(CN2CCN(C(=S)Sc3ccc([N+](=O)[O-])cc3[N+](=O)[O-])CC2)cc1`, the IC50 in experiment [1] came out at 1.74 µM.

As for `COc1cccc(NC(=O)C2CCN(C(c3ccccc3)c3ccccc3)CC2)c1`, on Monoglyceride lipase, the IC50 is more than 100 µM. On the same count and under the same terms, the value for `O=C(Nc1cccc(Cl)c1)C1CCN(C(=O)c2ccccc2O)CC1` was more than 100 µM. Same read-out and setting: the value for `O=C(Nc1cccc(Cl)c1)C1CCN(C(=O)c2ccc(Cl)cc2)CC1` was more than 100 µM; that for `Cc1cc(C)cc(NC(=O)C2CCN(C(c3ccc(F)cc3)c3ccc(F)cc3)CC2)c1` was more than 100 µM. As for `CNCCC(Oc1ccc(C(F)(F)F)cc1)c1ccccc1.Cl` (stereo unspecified) [FLUOXETINE HYDROCHLORIDE], the Time in the experiment on Mus musculus [2] was found to be 92.64 s; with Mus musculus [3], 92.19 s.

Source of the values: ChEMBL document CHEMBL4613273, “Discovery of Aryl Formyl Piperidine Derivatives as Potent, Reversible, and Selective Monoacylglycerol Lipase Inhibitors” (J Med Chem, 2020).
